In patent US11026940B2, “Compositions for the mobilization, homing, expansion and differentiation of stem cells and methods of using the same” (Ampio Pharmaceuticals, Inc., priority 2013, dated 2021):

How the values were obtained:
[1] = system: Bone marrow derived human mesenchymal stem cells; assay: Migration (invasion) assay using pretreated stem cells, transwell, calcein AM fluorescence; format: cell-based; conditions: for mean FU: cells pretreated 72 hours, migration 24 hours; for FU 1: replicate 1; for FU 2: replicate 2; for FU 3: replicate 3
Method: This experiment will be designed to establish if migration of MSC is altered as well.
• Passage 5 Bone marrow derived human mesenchymal stem cells (HUXMA-01001, Cyagen Biosciences, Sunnyvale Calif.) • TheraPEAK MSCGM chemically defined Stem cell medium (190632 Lonza) • Lonza MSGM, Gibco RPMI, Gibco Defined fetal bovine serum. • 10 mM Cobalt chloride in saline, sterile filtered (Sigma) • Saline or 0.9% Sodium chloride for injection ZR Flush (Excelsior Medical, Neptune N.J.) • 0.2 μM syringe filters • Hepes buffered saline, Trypsin/EDTA, Trypsin neutralizing solution (Lonza reagent pack) • 25 and 175 cm^2 tissue culture flasks • pipettes and sterile tips • Tissue culture hood, humidified CO2 incubator, water or bead bath • 8.0 um Thincert tissue culture inserts and 24 well tissue culture plates (Greiner) • 50 μg Calcein AM vials (BD Biosciences) • DMSO (Sigma) Cell Expansion: • Passage 5 HUXMA cells were removed from liquid nitrogen storage and expanded in 175 cm^2 flasks containing 40 mls TheraPEAK MSCGM until 80-90% confluence. • Trypsinize cells using standard protocol and proceed to the next step. Treatment of Cells: • Prepare the following working dilutions in saline for injection from the stocks listed above. • Saline • 800 uM Cobalt Chloride in saline • Neat Ampion • Warm dilutions and Lonza MSCGM to 37° C. in bead bath. • Prepare a cell suspension of HUXMA stem cells in warmed MSCGM medium. • Count and then bring up 250,000 from the cell suspension in 4 mls warmed MSCGM. • Add the diluted cell solution to a 25 cm^2 tissue culture flasks. • Add 1 ml of the appropriate working dilution to the flask. • Incubate at 37° C. and 5% CO2 for 72 hours. Invasion Assay: • Remove the cells from the flask with trypsin and place in 600 μl RPMI+0.5% FBS. • Add 200 μl of the resulting cell suspension to the upper chamber of thinserts (3 inserts per treatment group) resting in a 24 well tissue culture plate. • Add 600 μl RPMI+0.5% FBS to the bottom chamber of the transwell system. • Add 66 μl of one the following solutions to the bottom chamber for each treatment group. • 550 ng/ml SDF (final 50 ng/ml) • 110 ng/ml TGF beta3 (final 10 ng/ml) • Serum (final 10%) • Incubate the plate for 24 hours at 37° C. and 5% CO2. Labeling and Cell Detection. • Remove two calcein AM vials and add 20 μl DMSO. • Transfer the contents of both vials to 12.5 ml RPMI containing 0.2% BSA. • Place 450 μl of the calcein AM solution (8 μM) in each well of a 24 well tissue culture plate. • Transfer the inserts from above to the wells containing calcein AM and incubate 45 minutes at 37° C. and 5% CO2. • After loading the cells with calcein AM, transfer the inserts to 24 well tissue culture plate wells containing 450 μl trypsin EDTA and incubate for another 10 minutes. • Discard inserts then add 450 μl trypsin neutralizing solution to each well. • Transfer 250 μl of the resulting solution to a 96 well black, flat bottom plate well (each reaction in triplicate). • Read fluorescence at 485 nm excitation and 530 nm emission.

CXCR4 = CXCR4 transcription by MSC in hanging drop (3D) culture, RTPCR; format: cell-based, human; conditions: Actin normalization, 4 days
Method: (§1) This effect is more pronounced if the cells are grown directly on plastic in a 2D conformation. In this example, MSCs are cultured in hanging drop cultures in the presence of Ampion™ and then mRNA is evaluated by RTPCR.
(§2) Materials: • Passage 5 Bone marrow derived human mesenchymal stem cells (HUXMA-01001, Cyagen Biosciences, Sunnyvale Calif.) • Mesenchymal Stem Cell Chondrogenic Differentiation medium (GUXMX-90041, Cyagen Biosciences, Sunnyvale Calif.) • TheraPEAK MSCGM chemically defined Stem cell medium (190632 Lonza) • Lonza MSGM (contains serum) • 10 mM Cobalt chloride in saline, sterile filtered (Sigma) • Saline or 0.9% Sodium chloride for injection ZR Flush (Excelsior Medical, Neptune N.J.) • 0.2 μM syringe filters • Hepes buffered saline, Trypsin/EDTA, Trypsin neutralizing solution (Lonza reagent pack) • 182 cm^2 tissue culture flasks • pipettes and sterile tips • Tissue culture hood, humidified CO2 incubator, water or bead bath • 10 cm^2 petri dishes • Qiagen RNeasy plus spin columns (Qiagen 74134) • Qiagen RT^2 qPCR primer pairs for CXCR4, CXCL12, Collagen 2A1, MMP14, MMP13, Aggrecan, IGA4, GAPDH, and Actin B • Roche Sybr green I master mix and Invitrogen Superscript VILO master mix. • Roche 480 lightcycler Cell Expansion: • Passage 5 HUXMA cells were removed from liquid nitrogen storage and expanded in 182 cm^2 flasks containing 40 mls TheraPEAK MSCGM until 80-90% confluence. • Trypsinize cells using standard protocol and proceed to the next step. […] RNA Isolations and Analysis: • After 4 days, remove the plates from the incubator. • Wash spheroids from the lid with 5 mls of the warm PBS in the bottom of each plate and transfer to 15 ml conical centrifuge tubes. • Spin cells at 1000 RPM for 5 minutes and aspirate the solution. • To each tube, add 350 μl Qiagen RNeasy plus lysis buffer (with 2ME). • Transfer solution to Qiashredder columns and spin at 14,000 rpm for 2 minutes. • Proceed with RNeasy plus protocol following manufacturers recommendations. • Elute RNA from columns using 30 μl RNase free water. cDNA Synthesis and Real Time PCR: • First strand synthesis of cDNA from all samples was then performed following the recommended 20 μl total volume protocol using 10 μl isolated RNA. • All cDNA reactions were then diluted with 30 μl nuclease free water. • Real time PCR was then performed using 5 μl diluted cDNA, Roche Syber green master mix, and Qiagen RT^2 qPCR primer pairs (20 μl total volume). • Relative gene expression determined by delta deta Ct method. […]

CXCL12 = CXCL12 transcription by MSC in hanging drop (3D) culture, RTPCR; format: cell-based, human; conditions: Actin normalization, 4 days
Method: as §1, §2

## [Cl][Co][Cl] [Cobalt, Cobalt chloride]
[1]; chemoattractant 10% FBS
  % increase (migration vs saline): 29.1%
  mean FU: 343.27 FU
  FU 1: 346.49 FU
  FU 2: 329.28 FU
  FU 3: 354.03 FU
[1]; chemoattractant SDF-1
  % increase (migration vs saline): 1.2%
  FU 1: 215.24 FU
  FU 2: 267.07 FU
  FU 3: 285.27 FU
[1]; chemoattractant SDF-1 (final 50 ng/ml)
  mean FU: 255.86 FU
[1]; chemoattractant TGF B3
  % increase (migration vs saline): −6.8%
  FU 1: 274.97 FU
  FU 2: 288.44 FU
  FU 3: 296.9 FU
[1]; chemoattractant TGF B3 (final 10 ng/ml)
  mean FU: 286.77 FU
CXCR4
  2-^ΔΔCp vs saline, CXCR4: 8.369
  regulation, CXCR4: 8.37
  ΔΔCp vs saline, CXCR4: −3.065
CXCR4; hanging drop culture
  ΔCp, CXCR4: 11.19
CXCL12
  2-ΔΔCp vs saline, CXCL12: 0.005
  regulation, CXCL12: −219.79
  ΔΔCp vs saline, CXCL12: 7.78
CXCL12; hanging drop culture
  ΔCp, CXCL12: 14.91
